Test results taken from US4633014A, “Substituted 3-hydrazinopropionates” (priority 1983, dated 1986).

Columns and labels:
[1] = test system: arrhythmia induced by an intravenous administration of calcium chloride; assay: Antiarrhythmic activity on a model of arrhythmia induced by intravenous calcium chloride (antagonism to calcium) in mice; type: in vivo; settings: white mice, 20-40 minutes before
Procedure: The specific (antiarrhythmic) effect and acute toxicity were studied.
The antiarrhythmic activity of the compounds according to the present invention was studied on a model of arrhythmia induced by an intravenous administration of calcium chloride. In experiments on white mice of both sexes with a mass of 18-25 g narcotized by urethane (1,200 mg/kg intraperitoneally) ECG in the second standard lead was recorded. A 2% solution of calcium chloride was introduced into the tail vein at a constant rate (0.01 ml for 2 sec). The dose of calcium chloride causing arrhythmia and the dose causing the heart arrest were determined. In the test groups the test compounds were administered intraperitoneally 20-40 minutes before the beginning of the experiment.

in vivo = settings: mouse, in vivo, ip
Procedure: (§1) The study of the effect provided by the compounds according to the present invention on the cardio-vascular system was carried out in experiments on white mice. The specific (antiarrhythmic) effect and acute toxicity were studied.
(§2) The acute toxicity of the compounds according to the present invention was determined in experiments on white mice with a mass of 20-25 g. The test compounds were administered intraperitoneally in the form of aqueous solutions or suspensions in Twin-80. Observation over the test animals was effected for 10 days.

white mice = assay: in vivo
Procedure: as §1, §2

[2] = white mice, intraperitoneal, relative to quinidine

CCOC(=O)CCN(C(=O)c1ccccc1F)N(C)C [I-45, 3-/2,2-dimethyl-1-(2'-fluorobenzoyl)-hydrazino/ethylpropionate]
Dose of calcium chloride causing arrythmia in animals under experiment ([1]; intraperitoneal dose 5 mg/kg): 95,0 mg/kg
Dose of calcium chloride causing death in animals under experiment ([1]; intraperitoneal dose 5 mg/kg): 112,5 mg/kg
Dose of calcium chloride causing arrythmia in animals under experiment ([1]; intraperitoneal dose 15 mg/kg): 102,8 mg/kg
Dose of calcium chloride causing death in animals under experiment ([1]; intraperitoneal dose 15 mg/kg): 125,0 mg/kg
LD50 at 240 h (in vivo): 1480 mg/kg
Relative toxisity to quinidine (white mice; mouse, in vivo, ip, 14400 min): 9,4

CCCC(=O)N(CCC(N)=O)N(C)C [I-48, 3-(2,2-dimethyl-1-butyrylhydrazino)propionamide]
Dose of calcium chloride causing arrythmia in animals under experiment ([1]; intraperitoneal dose 5 mg/kg): 88 mg/kg
Dose of calcium chloride causing death in animals under experiment ([1]; intraperitoneal dose 5 mg/kg): 101,8 mg/kg
Dose of calcium chloride causing arrythmia in animals under experiment ([1]; intraperitoneal dose 15 mg/kg): 95,3 mg/kg
Dose of calcium chloride causing death in animals under experiment ([1]; intraperitoneal dose 15 mg/kg): 109 mg/kg
LD50 at 240 h (in vivo): 1700 mg/kg
Relative toxisity to quinidine (white mice; mouse, in vivo, ip, 14400 min): 10,9

COC(=O)C(C)CN(C(=O)c1ccccc1)N(C)C (stereo not drawn) [I-39, 3-(2,2-dimethyl-1-benzoylhydrazino)-2-methylmethylpropionate]
Dose of calcium chloride causing arrythmia in animals under experiment ([1]; intraperitoneal dose 5 mg/kg): 88,7 mg/kg
Dose of calcium chloride causing death in animals under experiment ([1]; intraperitoneal dose 5 mg/kg): 111,3 mg/kg
Dose of calcium chloride causing arrythmia in animals under experiment ([1]; intraperitoneal dose 15 mg/kg): 100,0 mg/kg
Dose of calcium chloride causing death in animals under experiment ([1]; intraperitoneal dose 15 mg/kg): 121,5 mg/kg
LD50 at 240 h (in vivo): 1750 mg/kg
Relative toxisity to quinidine (white mice; mouse, in vivo, ip, 14400 min): 11,2

COC(=O)C(C)CN(C(=O)c1ccccc1F)N(C)C (stereo not drawn) [I-40, 3-(2,2-dimethyl-1-2'-fluorobenzoylhydrazino)-2-methylmethylpropionate]
Dose of calcium chloride causing arrythmia in animals under experiment ([1]; intraperitoneal dose 5 mg/kg): 93,5 mg/kg
Dose of calcium chloride causing death in animals under experiment ([1]; intraperitoneal dose 5 mg/kg): 115,0 mg/kg
Dose of calcium chloride causing arrythmia in animals under experiment ([1]; intraperitoneal dose 15 mg/kg): 103,3 mg/kg
Dose of calcium chloride causing death in animals under experiment ([1]; intraperitoneal dose 15 mg/kg): 118,6 mg/kg
LD50 at 240 h (in vivo): 1400 mg/kg
Relative toxisity to quinidine (white mice; mouse, in vivo, ip, 14400 min): 8,0

CCCCCC(=O)N(CC(C)C(=O)OC)N(C)C (stereo not drawn) [I-38, 3-(2,2-dimethyl-1-hexanoylhydrazino)-2-methylmethylpropionate]
Dose of calcium chloride causing arrythmia in animals under experiment ([1]; intraperitoneal dose 5 mg/kg): 102,0 mg/kg
Dose of calcium chloride causing death in animals under experiment ([1]; intraperitoneal dose 5 mg/kg): 115,8 mg/kg
Dose of calcium chloride causing arrythmia in animals under experiment ([1]; intraperitoneal dose 15 mg/kg): 96,5 mg/kg
Dose of calcium chloride causing death in animals under experiment ([1]; intraperitoneal dose 15 mg/kg): 120,0 mg/kg
LD50 at 240 h (in vivo): 1930 mg/kg
Relative toxisity to quinidine (white mice; mouse, in vivo, ip, 14400 min): 12,3

C=CCNC(=S)N(CCC#N)N(C)C [I-22, 3-(2,2-dimethyl-1-allylthiocarbamoylhydrazino)propionitrile]
Dose of calcium chloride causing arrythmia in animals under experiment ([1]; intraperitoneal dose 5 mg/kg): 92,5 mg/kg
Dose of calcium chloride causing death in animals under experiment ([1]; intraperitoneal dose 5 mg/kg): 108,0 mg/kg
Dose of calcium chloride causing arrythmia in animals under experiment ([1]; intraperitoneal dose 25 mg/kg): 130,0 mg/kg
Dose of calcium chloride causing death in animals under experiment ([1]; intraperitoneal dose 25 mg/kg): 146,0 mg/kg
LD50 at 240 h (in vivo): 1450 mg/kg
Relative toxisity to quinidine (white mice; mouse, in vivo, ip, 14400 min): 9,3

COC(=O)CCN(C(N)=O)N(C)C [I-1, 3-(2,2-Dimethyl-1-carbamoylhydrazino)-methylpropionate]
Dose of calcium chloride causing arrythmia in animals under experiment ([1]; intraperitoneal dose 5 mg/kg): 118,5 mg/kg
Dose of calcium chloride causing death in animals under experiment ([1]; intraperitoneal dose 5 mg/kg): 149,0 mg/kg
Dose of calcium chloride causing arrythmia in animals under experiment ([1]; intraperitoneal dose 15 mg/kg): 124,4 mg/kg
Dose of calcium chloride causing death in animals under experiment ([1]; intraperitoneal dose 15 mg/kg): 138,3 mg/kg
LD50 at 240 h (in vivo): 2080 mg/kg
Relative toxisity to quinidine (white mice; mouse, in vivo, ip, 14400 min): 13,3

C=CCNC(=S)N(CC(C)C(=O)OC)N(C)C (stereo not drawn) [I-13]
Dose of calcium chloride causing arrythmia in animals under experiment ([1]; intraperitoneal dose 5 mg/kg): 117,3 mg/kg
Dose of calcium chloride causing death in animals under experiment ([1]; intraperitoneal dose 5 mg/kg): 136,5 mg/kg
Dose of calcium chloride causing arrythmia in animals under experiment ([1]; intraperitoneal dose 15 mg/kg): 126,0 mg/kg
Dose of calcium chloride causing death in animals under experiment ([1]; intraperitoneal dose 15 mg/kg): 138,0 mg/kg
LD50 at 240 h (in vivo): 1230 mg/kg
Relative toxisity to quinidine (white mice; mouse, in vivo, ip, 14400 min): 7,8

CNC(=O)N(CCC(N)=O)N(C)C [I-15, 3-(2,2-dimethyl-1-methylcarbamoylhydrazino)-propionamide]
Dose of calcium chloride causing arrythmia in animals under experiment ([1]; intraperitoneal dose 5 mg/kg): 97,8 mg/kg
Dose of calcium chloride causing death in animals under experiment ([1]; intraperitoneal dose 5 mg/kg): 109 mg/kg
Dose of calcium chloride causing arrythmia in animals under experiment ([1]; intraperitoneal dose 15 mg/kg): 100,7 mg/kg
Dose of calcium chloride causing death in animals under experiment ([1]; intraperitoneal dose 15 mg/kg): 108,5 mg/kg
LD50 at 240 h (in vivo): 3600 mg/kg
Relative toxisity to quinidine (white mice; mouse, in vivo, ip, 14400 min): 23

COC(=O)CCN(C(=O)OC)N(C)C [I-36, 3-(2,2-dimethyl-1-methoxycarbonylhydrazino)methylpropionate]
Dose of calcium chloride causing arrythmia in animals under experiment ([1]; intraperitoneal dose 5 mg/kg): 94,0 mg/kg
Dose of calcium chloride causing death in animals under experiment ([1]; intraperitoneal dose 5 mg/kg): 113,6 mg/kg
Dose of calcium chloride causing arrythmia in animals under experiment ([1]; intraperitoneal dose 15 mg/kg): 98,6 mg/kg
Dose of calcium chloride causing death in animals under experiment ([1]; intraperitoneal dose 15 mg/kg): 118,5 mg/kg
LD50 at 240 h (in vivo): 1380 mg/kg
Relative toxisity to quinidine (white mice; [2]): 8,8

COC(=O)C(C)CN(C(C)=O)N(C)C (stereo not drawn) [I-37, 3-(2,2-dimethyl-I-acetylhydrazino)-2-methylmethylpropionate]
Dose of calcium chloride causing arrythmia in animals under experiment ([1]; intraperitoneal dose 5 mg/kg): 100 mg/kg
Dose of calcium chloride causing death in animals under experiment ([1]; intraperitoneal dose 5 mg/kg): 132,0 mg/kg
Dose of calcium chloride causing arrythmia in animals under experiment ([1]; intraperitoneal dose 15 mg/kg): 123 mg/kg
Dose of calcium chloride causing death in animals under experiment ([1]; intraperitoneal dose 15 mg/kg): 138,0 mg/kg
LD50 at 240 h (in vivo): 810 mg/kg
Relative toxisity to quinidine (white mice; [2]): 5,1

CN(C)N(CCC#N)C(=O)Nc1ccccc1 [I-61, 3-(2,2-dimethyl-1-phenylcarbamoylhydrazino)propionitrile]
Dose of calcium chloride causing arrythmia in animals under experiment ([1]; intraperitoneal dose 5 mg/kg): 105,0 mg/kg
Dose of calcium chloride causing death in animals under experiment ([1]; intraperitoneal dose 5 mg/kg): 128,8 mg/kg
Dose of calcium chloride causing arrythmia in animals under experiment ([1]; intraperitoneal dose 15 mg/kg): 102,6 mg/kg
Dose of calcium chloride causing death in animals under experiment ([1]; intraperitoneal dose 15 mg/kg): 130,0 mg/kg
LD50 at 240 h (in vivo): 1250 mg/kg
Relative toxisity to quinidine (white mice; mouse, in vivo, ip, 14400 min): 8,0

CCOC(=O)CCN(C(C)=O)N(C)C [I-42, 3-(2,2-dimethyl-1-acetylhydrazino)ethylpropionate]
Dose of calcium chloride causing arrythmia in animals under experiment ([1]; intraperitoneal dose 5 mg/kg): 87,5 mg/kg
Dose of calcium chloride causing death in animals under experiment ([1]; intraperitoneal dose 5 mg/kg): 112,0 mg/kg
Dose of calcium chloride causing arrythmia in animals under experiment ([1]; intraperitoneal dose 15 mg/kg): 103,0 mg/kg
Dose of calcium chloride causing death in animals under experiment ([1]; intraperitoneal dose 15 mg/kg): 115,0 mg/kg
LD50 at 240 h (in vivo): 2380 mg/kg
Relative toxisity to quinidine (white mice; mouse, in vivo, ip, 14400 min): 15,2

CCCCCC(=O)N(CCC(=O)OCC)N(C)C [I-43, 3-(2,2-dimethyl-1-hexanoylhydrazino)ethylpropionate]
Dose of calcium chloride causing arrythmia in animals under experiment ([1]; intraperitoneal dose 5 mg/kg): 94,0 mg/kg
Dose of calcium chloride causing death in animals under experiment ([1]; intraperitoneal dose 5 mg/kg): 105,0 mg/kg
Dose of calcium chloride causing arrythmia in animals under experiment ([1]; intraperitoneal dose 15 mg/kg): 108,5 mg/kg
Dose of calcium chloride causing death in animals under experiment ([1]; intraperitoneal dose 15 mg/kg): 120,3 mg/kg
LD50 at 240 h (in vivo): 1460 mg/kg
Relative toxisity to quinidine (white mice; mouse, in vivo, ip, 14400 min): 9,3

COC(=O)C(C)CN(C(N)=O)N(C)C (stereo not drawn) [I-11, 3-(2,2-dimethyl-1-carbamoylhydrazino)-2-methyl-methylpropionate]
Dose of calcium chloride causing arrythmia in animals under experiment ([1]; intraperitoneal dose 5 mg/kg): 100,3 mg/kg
Dose of calcium chloride causing death in animals under experiment ([1]; intraperitoneal dose 5 mg/kg): 147 mg/kg
Dose of calcium chloride causing arrythmia in animals under experiment ([1]; intraperitoneal dose 15 mg/kg): 130,7 mg/kg
Dose of calcium chloride causing death in animals under experiment ([1]; intraperitoneal dose 15 mg/kg): 136,3 mg/kg
LD50 at 240 h (in vivo): 1850 mg/kg
Relative toxisity to quinidine (white mice; mouse, in vivo, ip, 14400 min): 11,8

CN(C)N(CCC#N)C(=O)c1ccccc1F [I-63, 3-(2,2-dimethyl-1-2'-fluorobenzoylhydrazino)propionitrile]
Dose of calcium chloride causing arrythmia in animals under experiment ([1]; intraperitoneal dose 5 mg/kg): 101,5 mg/kg
Dose of calcium chloride causing death in animals under experiment ([1]; intraperitoneal dose 5 mg/kg): 117,3 mg/kg
Dose of calcium chloride causing arrythmia in animals under experiment ([1]; intraperitoneal dose 15 mg/kg): 112,3 mg/kg
Dose of calcium chloride causing death in animals under experiment ([1]; intraperitoneal dose 15 mg/kg): 128,0 mg/kg
LD50 at 240 h (in vivo): 1850 mg/kg
Relative toxisity to quinidine (white mice; mouse, in vivo, ip, 14400 min): 11,8

COC(=O)CC(C(=O)OC)N(C(=O)c1ccccc1)N(C)C (stereo not drawn) [I-58, 3-(2,2-dimethyl-1-benzoylhydrazino)-3-methoxycarbonyl-methylpropionate]
Dose of calcium chloride causing arrythmia in animals under experiment ([1]; intraperitoneal dose 5 mg/kg): 97,0 mg/kg
Dose of calcium chloride causing death in animals under experiment ([1]; intraperitoneal dose 5 mg/kg): 112,0 mg/kg
Dose of calcium chloride causing arrythmia in animals under experiment ([1]; intraperitoneal dose 15 mg/kg): 100,5 mg/kg
Dose of calcium chloride causing death in animals under experiment ([1]; intraperitoneal dose 15 mg/kg): 118,5 mg/kg
LD50 at 240 h (in vivo): > 3000 mg/kg
Relative toxisity to quinidine (white mice; mouse, in vivo, ip, 14400 min): > 19,2
